The record followed here is ChEMBL document CHEMBL1148561, “Design, synthesis, and biological evaluation of the N-diarylalkenyl-piperidinecarboxylic acid derivatives as GABA uptake inhibitors (I)” (Bioorg Med Chem Lett, 2006).

SMILES strings stand for the structures.

As usually defined, the IC50 is the concentration at which inhibition is half-maximal.

The target in this test is Sodium- and chloride-dependent GABA transporter 1 (Homo sapiens, UniProt P30531). Put plainly: Inhibition of GAT1 transport activity.
Sequence of Sodium- and chloride-dependent GABA transporter 1 (P30531 whole entry): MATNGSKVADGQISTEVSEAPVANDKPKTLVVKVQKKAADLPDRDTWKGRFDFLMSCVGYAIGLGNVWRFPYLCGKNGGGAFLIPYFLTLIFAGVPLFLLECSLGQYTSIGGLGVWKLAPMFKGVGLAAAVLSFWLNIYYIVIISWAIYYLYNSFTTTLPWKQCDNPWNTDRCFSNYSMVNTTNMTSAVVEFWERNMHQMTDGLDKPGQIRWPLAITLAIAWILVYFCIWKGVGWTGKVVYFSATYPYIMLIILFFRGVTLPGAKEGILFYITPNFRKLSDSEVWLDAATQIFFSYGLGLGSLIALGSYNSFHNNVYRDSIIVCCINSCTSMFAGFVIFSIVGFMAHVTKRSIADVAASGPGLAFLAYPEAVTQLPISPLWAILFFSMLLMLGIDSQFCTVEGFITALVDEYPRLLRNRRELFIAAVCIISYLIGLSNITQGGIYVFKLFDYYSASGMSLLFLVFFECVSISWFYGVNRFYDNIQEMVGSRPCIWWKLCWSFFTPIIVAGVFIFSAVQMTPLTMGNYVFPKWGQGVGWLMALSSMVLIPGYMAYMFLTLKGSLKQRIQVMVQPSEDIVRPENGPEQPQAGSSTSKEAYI
The compound `O=C(O)[C@@H]1CCCN(CCC=C(c2sccc2COCc2ccccc2)c2sccc2COCc2ccccc2)C1` gave an IC50 of 840 nM.
The compound `O=C(O)[C@@H]1CCCN(CCC=C(c2sccc2COc2cccc3ccccc23)c2sccc2COc2cccc3ccccc23)C1` yielded an IC50 of 66300 nM.
In the case of `O=C(O)C1CCN(CCC=C(c2sccc2COC2CCCCC2)c2sccc2COC2CCCCC2)CC1` it was 1240 nM; in that of `O=C(O)C1CCCCN1CCC=C(c1sccc1COCc1ccccc1)c1sccc1COCc1ccccc1` (stereo not given), 27600 nM; in that of `COCc1ccsc1C(=CCCN1CCC[C@@H](C(=O)O)C1)c1sccc1COC`, 2800 nM.
In the case of `O=C(O)[C@@H]1CCCN(CCC=C(c2sccc2COc2ccccc2)c2sccc2COc2ccccc2)C1` it was 340 nM; in that of `Cc1ccsc1C(=CCCN1CCCCC1C(=O)O)c1sccc1C` (stereo not given), 1360 nM; in that of `O=C(O)C1CCN(CCC=C(c2sccc2COc2ccccc2)c2sccc2COc2ccccc2)CC1`, 1500 nM.
The result for `O=C(O)C1CCN(CCC=C(c2sccc2COc2cccc3ccccc23)c2sccc2COc2cccc3ccccc23)CC1` reads above 100000 nM; that for `O=C(O)C1CCCCN1CCC=C(c1sccc1COC1CCCCC1)c1sccc1COC1CCCCC1` (stereo not given), 940 nM; that for `CC(C)OCc1ccsc1C(=CCCN1CCC[C@@H](C(=O)O)C1)c1sccc1COC(C)C`, 7100 nM.
With `COCc1ccsc1C(=CCCN1CCCCC1C(=O)O)c1sccc1COC` (stereo not given), the IC50 came out at 12300 nM.
The result for `O=C(O)C1CCCCN1CCC=C(c1sccc1COc1ccccc1)c1sccc1COc1ccccc1` (stereo not given) reads 650 nM; that for `O=C(O)C1CCN(CCC=C(c2sccc2COCc2ccccc2)c2sccc2COCc2ccccc2)CC1`, 4340 nM.
The result for `Cc1ccsc1C(=CCCN1CCC(C(=O)O)CC1)c1sccc1C` reads above 100000 nM; that for `O=C(O)C1CCCCN1CCC=C(c1sccc1COc1cccc2ccccc12)c1sccc1COc1cccc2ccccc12` (stereo not given), above 100000 nM.
The result for `CC(C)OCc1ccsc1C(=CCCN1CCCCC1C(=O)O)c1sccc1COC(C)C` (stereo not given) reads above 100000 nM; that for `CC(C)OCc1ccsc1C(=CCCN1CCC(C(=O)O)CC1)c1sccc1COC(C)C`, above 100000 nM.
Regarding `COCc1ccsc1C(=CCCN1CCC(C(=O)O)CC1)c1sccc1COC`, the IC50 was above 100000 nM.
The compound `O=C(O)[C@@H]1CCCN(CCC=C(c2sccc2COC2CCCCC2)c2sccc2COC2CCCCC2)C1` displayed a half-maximal inhibitory concentration (IC50) of 680 nM.
